Results from patent publication US20070021397A1, “Neurocyte protective agent” (priority 2003, published 2007).

Experiments:
[1] = system: rat primary culture neurons; test: OGD test, microscopic observation of cell morphology; conditions: added before OGD treatment; FIG. 2
[2] = system: rat primary culture cerebral cortex neurons; test: OGD (oxygen glucose deprivation) test, LDH release; type: cell-based; conditions: added 12 h before OGD; 0.1, 1.0, 10 μM (galantamine 1.0, 10, 100 μM); FIG. 3
From the text: After culturing for 7 days or more, cells were subjected to OGD treatment. […] As an indicator for neurocyte protection effect, ratio of LDH release inhibition was used. […] Therefore, when cells are injured by OGD, LDH flows out from inside of the cells into extracellular solution. In this solution, LDH is present depending on the degree of injury of the cells (cell death). The amount of LDH present in the solution can be determined by adding pyruvic acid and NADH to the solution and measuring the decreasing ratio of NADH with an absorption spectrometer.
Subsequently, rat primary culture neurons were subjected to OGD treatment in the same manner as in the previous test.
Then, their effects on LDH release induced by OGD treatment were tested.

[3] = system: cultured rat septal area neurons; test: Aβ(1-40) toxicity, LDH leakage from cultured septal area neurons; type: cell-based; conditions: siRNA 1 μmol/L added 24 h before and immediately before 15 μmol/L Aβ(1-40), 48 h; FIG. 12
Method: Septal area neurons were prepared from embryos (18-day-old embryos) of Wistar rats (Charles River Japan). The septal region (including septal area and basal forebrain) was cut out from embryonic brain and incubated in Ca^2+/Mg^2+-free Hanks' balanced salt solution containing 0.25% trypsin and 0.2 mg/ml DNase I at 37° C. for 15 minutes. […] Cells were plated on 96-well poly-D-lysine-coated culture plates at a concentration of 1.2×10^5 cells/well. The plated cells were cultured in a CO2 incubator (5% CO2, 37° C.). After one day, ⅔ of the medium was exchanged for the above-described DMEM containing 5% fetal calf serum. After three days, ⅔ of the medium was exchanged again for the above-described DMEM containing 5% fetal calf serum. After 6 days, the entire medium was exchanged for the above-described DMEM (this time, Gln is not contained) not containing serum.
As an indicator for cytotoxicity, LDH (lactate dehydrogenase) was measured. […] Forty-eight hours after the addition of Aβ(1-40), lactate dehydrogenase (LDH) activity in the medium was measured. At the same time, cells were solubilized with phosphate buffer (pH 7.4) containing 0.5% Triton X-100, followed by measurement of LDH in cells. […] The data were analyzed by analysis techniques of ANOVA and Welch's test.
LDH (lactate dehydrogenase) was measured as an indicator for cytotoxicity. […] The data were analyzed by ANOVA and Welch's test.

Compound | protective effect against Aβ(1-40) toxicity (LDH) [3] | other results
COc1cc2c(cc1OC)C(=O)C(CC1CCN(Cc3ccccc3)CC1)C2.Cl (stereo not shown) [Donepezil, 1-benzyl-4-[(5,6-dimethoxy-1-indanone)-2-yl]methylpiperidine] |  | protection of neurons by cell morphology [1]: neurons were protected by the addition of donepezil before OGD treatment
CCN(C)C(=O)Oc1cccc([C@H](C)N(C)C)c1 [Rivastigmine] |  | inhibition of LDH release (neurocyte protective effect) after OGD [2]: did not show any neurocyte protective effect
siRNA (i): double-stranded siRNA of acetylcholinesterase, SEQ ID NO: 1 and SEQ ID NO: 2 (chain 1 AAUGUCAGUGACUCUGUUUTT; chain 2 AAACAGAGUCACUGACAUUTT; chemistry not given here) | inhibit Aβ toxicity | 
siRNA (ii): double-stranded siRNA of acetylcholinesterase, SEQ ID NO: 3 and SEQ ID NO: 4 (chain 1 GCUGCCUCAAGAAAGUAUCTT; chain 2 GAUACUUUCUUGAGGCAGCTT; chemistry not given here) | inhibit Aβ toxicity | 
